The term IC50 denotes the point on the concentration scale where inhibition reaches its midpoint.

The values that follow come from US20100021941A1, “METHODS OF IDENTIFYING MODULATORS OF UBIQUITIN LIGASES” (PROGENRA, INCORPORATED, priority 2008, published 2010).

In experiment [1] the test system is E3 ubiquitylation reaction containing E1, E2 (UbcH5c) and E3. The experiment in a line: E3 ligase inhibition assay using 5′-IAF-UBA1 detection and anti-ubiquitin immunoblot. In kind it is biochemical, human. Particulars: pre-incubated with various concentrations for 30 minutes at room temperature before adding ubiquitin and ATP; FIGS. 9A-D. The protocol: E3 ligase reactions contained 10 nM GST-Praja1, 500 nM 6× His-SUMO-CARP2 or 500 nM 6× His-SUMO-MuRF1 as E3s, 50 nM E1, 150 nM UbcH5c (E2), 500 ng Ubiquitin, 2 mM ATP, 50 mM Tris-HCl pH8.0, 5 mM MgCl2, 0.1 mM DTT. For measuring SCF^Atrogin-1 E3 ligase activity, the reaction was assembled essentially as described above except that the E3 ligase contained 6× His-SUMO-Atrogin-1, Cullin-1 (“Cul1”), Roc-1 (“Rbx-1 ”) and 6× His-Skp1 (250 nM each). In order to obtain large amounts of the Cul1-Rbx1 complex for the SCF complex, we used a procedure to overexpress the Cul1-Rbx1 complex in E. coli. Zheng, et al., Nature, 416(6882):703-9 (2002). The Cull gene was split into two halves (residues 1-410 and residues 411-776) and co-expressed with GST-tagged Rbx1 as three different polypeptide chains. A PCR product encoding Skp1 was generated using the primers 5′-[…]-3′ (SEQ ID NO:28) and 5′-[…]-3′ (SEQ ID NO:29) and human Skp1 cDNA as the template. […]
For inhibition assays, reactions containing E1, E2, and E3 were pre-incubated with various concentrations of NEM and ubistatin A for 30 minutes at room temperature before initiating the reaction by adding ubiquitin and ATP. […] The wells were washed with 1× PBS and readings were taken using a fluorescence plate reader with excitation and emission wavelengths of 485 nm and 535nm, respectively. […]
On the technique in general: In western blotting, separated proteins are transferred to a membrane and probed.

The target in experiment [2] is T1, E1, E2 and E3 coupled enzyme reaction (GST-E1/His6-UbcH5c/6× His-SUMO-CARP2 ligase) (Homo sapiens, UniProt P22314+P61077+Q8WZ73).
T1 construct: fused on or other part: GST on E1; His6 on UbcH5c; 6x His-SUMO on CARP2; The plate is coated with 6x His-SUMO-UBA2 (yeast Rad23 residues 351-398) as capture reagent
Nature of the experiment: E3 ligase assay (autoubiquitylation) on 6× His-SUMO-UBA2 coated plates, anti-ubiquitin antibody/FITC fluorescence detection. It is filed as biochemical. Conditions: enzymes pre-incubated with compound 30 minutes at room temperature; reaction 60 minutes at 37° C.; 500 nM 6× His SUMO-CARP2; triplicate; FIG. 6A. The protocol:
Medium binding plates (Costar, USA) were coated with 100 μl of 0.1 mg/ml solution of 6× His-SUMO-UBA2 overnight at 4° C. The plates were blocked with 200 μl of 3% BSA in 1× phosphate buffered saline (1× PBS, pH 7.4) for 3 hours at 4° C. and washed with 1× PBS three times. E3 reactions were carried out as follows. For IC50 experiments, various concentrations of NEM, iodoacetamide, and ubistatin A were added to individual wells in triplicate. Controls contained 5 μl of 10% DMSO or 50 mM NEM. The compounds were supplemented with 20 μl of enzyme mixture containing GST-E1 (10 nM)/His6-UbcH5c (100 nM), 6× His SUMO-CARP2 (500 nM) prepared in assay buffer (50 mM Tris-HCl, pH8.0, 2 mM MgCl2, 0.1 mM DTT) and incubated at room temperature for 30 minutes. A pFastBac-GST-E1 vector was expressed and purified from insect cells according to published methods. Beaudenon and Huibregtse, Methods Enzymol, 398: 3-8 9 (2005). A PCR product encoding UbcH5c was generated using the primers 5′-[…]-3′ (SEQ ID NO:24) and 5′-[…]-3′ (SEQ ID NO:25) and human UbcH5c cDNA as the template. The PCR fragment was digested with BsaI and BamHI, and then ligated into pET24D (Novagen) generating 6× His-UbcH5c. […] Plates were washed six times with 1× PBS and readings were taken using the fluorescence plate reader with excitation and emission wavelengths of 485 nm and 535 nm, respectively.

The structures appear in SMILES notation.

T1 sequence (P22314 2-1058): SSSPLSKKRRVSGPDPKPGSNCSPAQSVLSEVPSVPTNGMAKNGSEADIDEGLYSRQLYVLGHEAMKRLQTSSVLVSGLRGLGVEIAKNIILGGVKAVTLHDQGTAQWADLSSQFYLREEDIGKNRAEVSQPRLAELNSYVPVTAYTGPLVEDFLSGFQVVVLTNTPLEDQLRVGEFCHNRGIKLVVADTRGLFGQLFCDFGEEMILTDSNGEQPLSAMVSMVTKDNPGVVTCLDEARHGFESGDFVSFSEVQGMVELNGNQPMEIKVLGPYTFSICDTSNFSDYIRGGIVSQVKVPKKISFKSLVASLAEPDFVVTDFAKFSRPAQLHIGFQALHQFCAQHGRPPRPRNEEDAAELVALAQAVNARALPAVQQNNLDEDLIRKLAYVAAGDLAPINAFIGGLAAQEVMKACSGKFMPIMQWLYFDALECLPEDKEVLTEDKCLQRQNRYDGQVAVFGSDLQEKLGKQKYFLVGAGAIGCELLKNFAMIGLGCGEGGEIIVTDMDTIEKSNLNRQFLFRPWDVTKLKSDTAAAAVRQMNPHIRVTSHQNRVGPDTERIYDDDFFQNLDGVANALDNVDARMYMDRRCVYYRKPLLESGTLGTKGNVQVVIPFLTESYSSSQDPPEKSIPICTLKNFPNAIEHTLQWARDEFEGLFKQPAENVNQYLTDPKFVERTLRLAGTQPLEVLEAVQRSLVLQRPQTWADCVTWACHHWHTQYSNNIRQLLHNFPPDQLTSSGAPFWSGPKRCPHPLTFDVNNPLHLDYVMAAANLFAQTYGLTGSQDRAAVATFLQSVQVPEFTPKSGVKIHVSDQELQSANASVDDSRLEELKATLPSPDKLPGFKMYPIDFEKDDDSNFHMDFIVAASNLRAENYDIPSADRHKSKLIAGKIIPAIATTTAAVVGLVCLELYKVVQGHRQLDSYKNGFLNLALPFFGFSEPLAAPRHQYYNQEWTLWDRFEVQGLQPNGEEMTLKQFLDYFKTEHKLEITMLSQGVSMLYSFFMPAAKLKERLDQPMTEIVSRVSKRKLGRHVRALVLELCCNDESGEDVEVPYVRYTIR
T1 sequence (P61077 whole entry, the tested form may be a part): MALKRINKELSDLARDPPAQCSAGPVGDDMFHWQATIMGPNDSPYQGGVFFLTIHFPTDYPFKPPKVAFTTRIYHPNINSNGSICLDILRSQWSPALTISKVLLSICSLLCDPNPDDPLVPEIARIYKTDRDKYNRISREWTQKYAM
T1 sequence (Q8WZ73 whole entry, the tested form may be a part): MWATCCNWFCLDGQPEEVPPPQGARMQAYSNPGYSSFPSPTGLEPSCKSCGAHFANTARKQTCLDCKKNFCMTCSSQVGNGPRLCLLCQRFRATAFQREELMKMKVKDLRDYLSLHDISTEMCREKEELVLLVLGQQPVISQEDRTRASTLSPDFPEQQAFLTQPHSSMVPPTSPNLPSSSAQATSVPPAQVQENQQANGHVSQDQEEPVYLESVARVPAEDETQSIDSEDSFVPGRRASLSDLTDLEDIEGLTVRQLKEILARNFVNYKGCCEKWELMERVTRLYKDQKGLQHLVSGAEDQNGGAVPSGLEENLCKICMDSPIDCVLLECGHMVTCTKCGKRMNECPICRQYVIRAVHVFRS

On to `O=C(Nc1ccc(/C=C/c2ccc(NC(=O)c3cc(S(=O)(=O)O)c4cccnc4c3O)cc2S(=O)(=O)O)c(S(=O)(=O)O)c1)c1cc(S(=O)(=O)O)c2cccnc2c1O` [ubistatinA], for which the “inhibition of the E3 ubiquitylation assay” value in experiment [1] is listed as “inhibited”. Also, the IC50 in experiment [2] stood at 0.421 µM.

As to `CCN1C(=O)C=CC1=O` [NEM], in experiment [1], the “inhibition of the E3 ubiquitylation assay” value was “inhibited”. In experiment [2], the IC50 turned out to be 34.2 µM.
